Patent US20210198317A1, “REACTIVE OXYGEN PRODUCTION INHIBITOR AND/OR SCAVENGING PROMOTER” (NATIONAL UNIVERSITY CORPORATION OKAYAMA UNIVERSITY, priority 2018, published 2021)
“Also recorded” adds a separate entry of the source.

Columns and labels:
[1] = OxiSelect HORAC Activity Assay Kit: antioxidant activity against hydroxy radicals (cell-free, Fenton's reagent); assay type: biochemical; settings: for antioxidant action against hydroxy radicals (fluorescence intensity): every 5 minutes for 60 minutes; for Antioxidant Activity Against Hydroxy Radicals (NetAUC): AUCsample minus AUCblank, 60 minutes
Method: Antioxidant activity against hydroxy radicals was measured with OxiSelect™ HORAC Activity Assay Kit (Cell Biolabs, San Diego, Calif.) in accordance with the specifications. A fluorescent probe solution was added to a sample solution, the mixture was incubated at 37° C. for 30 minutes, and a hydroxy radical initiator (H2O2) and Fenton's reagent were added, followed by the measurement of a fluorescence intensity (Ex/Em=485 nm/538 nm) based on the oxidation of the fluorescent probe by hydroxy radicals via hydrogen atom transfer (HAT). In the presence of hydroxy radicals, the fluorescence of the fluorescent probe is quenched, and the quenching is inhibited when antioxidant activity is present. As the sample solution, 0.01 μM to 1 μM HRG solutions, or 50 μM to 100 μM GA solutions were used. A. For each of the 50 μM to 100 μM gallic acid (GA) sample solutions, their fluorescence intensities (Ex/Em=485 nm/538 nm) were measured every 5 minutes for 60 minutes in accordance with the above-mentioned measurement method. The fluorescence intensities of GA and a blank were plotted on the vertical axis, and the measurement times were plotted on the horizontal axis. […] B. For each of the 0 μM to 1 μM HRG sample solutions, their fluorescence intensities (Ex/Em=485 nm/538 nm) were measured every 5 minutes for 60 minutes in accordance with the above-mentioned measurement method. The fluorescence intensities of HRG and a blank were plotted on the vertical axis, and the measurement times were plotted on the horizontal axis. […] The difference between the area under the curve of the fluorescence intensity of GA or HRG (AUCsample) and the area under the curve of the blank (AUCblank) was measured every 5 minutes for 60 minutes after the initiation of reaction, and NetAUC was calculated. […] In this Example, the histidine-rich peptide (SEQ ID NO: 10) was investigated for its antioxidant action against hydroxy radicals by the same technique as that of Example 1. A control peptide (SEQ ID NO: 11) was similarly investigated. A. The fluorescent probe solution was added to each solution of HRG (1 μM), the histidine-rich peptide (6 μM), or the control peptide (6 μM), and antioxidant activity against hydroxy radicals was measured by the same technique as that of Example 1. […] B. The fluorescent probe solution was added to histidine-rich peptide solutions (0.1 μM to 10 μM), and the resultant mixtures were measured for their antioxidant activity against hydroxy radicals by the same technique as that of Example 1. […] The difference between the area under the curve of the fluorescence intensity of the histidine-rich peptide or HRG (AUCsample) and the area under the curve of the blank (AUCblank) was measured every 5 minutes for 60 minutes after the initiation of reaction to calculate NetAUC.

[2] = OxiSelect ORAC Activity Assay Kit: antioxidant activity against peroxy radicals (AAPH); assay type: biochemical; settings: for antioxidant action against peroxy radicals (fluorescence intensity): every 5 minutes for 60 minutes; for Antioxidant Activity Against Peroxy Radicals (NetAUC): AUCsample minus AUCblank, 60 minutes
Method: In this Example, HRG was investigated for its antioxidant action against peroxy radicals. As a positive control, Trolox was used. Antioxidant activity against peroxy radicals was measured with OxiSelect™ ORAC Activity Assay Kit (Cell Biolabs, San Diego, Calif.) in accordance with the specifications. The fluorescent probe solution was added to a sample solution, the mixture was incubated at 37° C. for 30 minutes, and added with 2,2′-azobis-(2-methylpropionamidine) dihydrochloride (AAPH), followed by immediate measurement of fluorescence intensity (Ex/Em=485 nm/538 nm). In the presence of peroxy radicals, the fluorescence of the fluorescent probe is quenched, and the quenching is inhibited when antioxidant activity is present. A. For each of 0 μM to 6.25 μM Trolox sample solutions, their fluorescence intensities (Ex/Em=485 nm/538 nm) were measured every 5 minutes for 60 minutes in accordance with the above-mentioned measurement method. […] B. For each of 0 μM to 1 μM HRG sample solutions, their fluorescence intensity (Ex/Em=485 nm/538 nm) were measured every 5 minutes for 60 minutes in accordance with the above-mentioned measurement method. […] The difference between the area under the curve of the fluorescence intensity of Trolox or HRG (AUCsample) and the area under the curve of the blank (AUCblank) was measured every 5 minutes for 60 minutes after the initiation of reaction to calculate NetAUC. […] In this Example, the histidine-rich peptide was investigated for its antioxidant action against peroxy radicals in the same manner as in Example 4. A. The fluorescent probe solution was added to each solution of HRG (1 μM), the histidine-rich peptide (6 μM), or the control peptide (6 μM), and antioxidant activity against peroxy radicals was measured by the same technique as that of Example 4. […] B. The fluorescent probe solution was added to histidine-rich peptide solutions (0.1 μM to 10 μM), and antioxidant activity against peroxy radicals was measured by the same technique as that of Example 4. […] The difference between the area under the curve of the fluorescence intensity of the histidine-rich peptide or HRG (AUCsample) and the area under the curve of the blank (AUCblank) was measured every 5 minutes for 60 minutes after the initiation of reaction to calculate NetAUC.

[3] = Calorimetry (MicroCal iTC200) metal ion-binding property, divalent metal ions; settings: for binding to divalent metal ions: iron, copper, cobalt, zinc, nickel, FIG. 4A-6B
Method: (§1) In this Example, in order to investigate the binding properties of HRG to metal ions serving as essential factors in Fenton' s reaction, an experiment was performed using calorimetry. MicroCal iTC200 was used as a calorimeter, and binding properties between various metals (iron, copper, cobalt, zinc, and nickel) and samples were measured in accordance with the specifications.

[4] = Calorimetry (MicroCal iTC200) metal ion-binding property, trivalent iron ions; settings: FIG. 4A, 5A, 6A
Method: as §1

[5] = DetectX Superoxide Dismutase (SOD) Colorimetric Activity Kit: antioxidant action against superoxide (xanthine/xanthine oxidase); assay type: biochemical; settings: 0.01 μM to 1 μM; room temperature 20 minutes; absorbance 450 nm; FIG. 9A-B
Text: In this Reference Example, the antioxidant action of HRG against superoxide was investigated through use of DetectX Superoxide Dismutase (SOD) Colorimetric Activity Kit (Arbor Assays, Ann Arbor, Mich.). HRG used was plasma-derived HRG generated by the method described in Example 1. Superoxide anion (O^2−) is generated by a xanthine/xanthine oxidase (XOD) system, and is detected through use of a chromogen solution. Superoxide dismutase (SOD) is a metalloenzyme that catalyzes the conversion of O^2− into an oxygen molecule and hydrogen peroxide. The presence of SOD decreases the O^2− concentration to decrease a dye signal.
In accordance with the specifications, xanthine oxidase, and a substrate were added to 0.01 μM to 1 μM HRG solutions, and the mixtures were incubated at room temperature for 20 minutes. After that, the reaction solutions were each measured for its absorbance at a wavelength of 450 nm. As a control, measurement was similarly performed for SOD.

[6] = OxiSelect Catalase Activity Assay Kit: catalase-like activity; assay type: biochemical; settings: 0.01 μM to 1 μM; FIG. 10A-B
Method: In this Reference Example, whether HRG had catalase-like activity was investigated through use of OxiSelect™ Catalase Activity Assay Kit (Cell Biolabs, San Diego, Calif.). HRG used was plasma-derived HRG generated by the method described in Example 1. A prescribed amount of hydrogen peroxide was allowed to react with 0.01 μM to 1 μM HRG. Next, the remaining hydrogen peroxide was incubated in the presence of HRP with a probe (colorimetric measurement: DHBS+AAP; and fluorescence measurement: ADHP (10-Acetyl-3,7-dihydroxyphenoxazine)) at 37° C. for 30 minutes, and the resulting fluorescence intensity (Ex/Em=544 nm/590 nm) was measured. As a control, measurement was similarly performed for catalase.

[7] = overall conclusion from the results

Molecule | antioxidant activity against hydroxy radicals ([1]; 6 μM, FIG. 3A) | binding to divalent metal ions [3] | binding to trivalent iron ions [4] | antioxidant activity against peroxy radicals ([2]; 6 μM, FIG. 8A) | Antioxidant Activity Against Hydroxy Radicals (NetAUC) ([1]; FIG. 3C) | antioxidant activity against hydroxy radicals [1, 7] | Antioxidant Activity Against Peroxy Radicals (NetAUC) ([2]; FIG. 8C) | further results
O=C(O)c1cc(O)c(O)c(O)c1 [GA, gallic acid, reference compound] |  |  |  |  |  |  |  | antioxidant action against hydroxy radicals (fluorescence intensity) ([1]; 50 μM to 100 μM sample solutions, FIG. 2A): antioxidant action against hydroxy radicals was recognized in a manner dependent on the concentration of GA
Cc1c(C)c2c(c(C)c1O)CCC(C)(C(=O)O)O2 (stereo not drawn) [Trolox, reference compound] |  |  |  |  |  |  |  | antioxidant action against peroxy radicals (fluorescence intensity) ([2]; 0 μM to 6.25 μM sample solutions, FIG. 7A): antioxidant action against peroxy radicals was recognized in a manner dependent on the concentration of Trolox
GAAPAGAAPA (Standard peptide) [control peptide, reference compound] | no antioxidant action | did not bind to any of the various metal ions | did not bind to any of the various metal ions | no antioxidant action |  |  |  | 
GHHPHGHHPH [histidine-rich peptide] | potent antioxidant actions | bind to divalent metal ions (iron, copper, cobalt, zinc, and nickel) | does not bind to trivalent iron ions | an antioxidant action, which was slightly weaker | potent antioxidant action against hydroxy radicals | potent antioxidant activity against hydroxy radicals | weak as compared to HRG | antioxidant activity against hydroxy radicals ([1]; 0.1 μM to 10 μM, FIG. 3B): potent antioxidant activity in a concentration-dependent manner; antioxidant activity against peroxy radicals ([2]; 0.1 μM to 10 μM, FIG. 8B): antioxidant activity in a slightly concentration-dependent manner
HRG: Histidine-rich glycoprotein, plasma protein of 507 amino acids (SEQ ID NO: 1), generated from human plasma as a starting material (protein, listed as Homo sapiens) VSPTDCSAVEPEAEKALDLINKRRRDGYLFQLLRIADAHLDRVENTTVYYLVLDVQESDCSVLSRKYWNDCEPPDSRRPSEIVIGQCKVIATRHSHESQDLRVIDFNCTTSSVSSALANTKDSPVLIDFFEDTERYRKQANKALEKYKEENDDFASFRVDRIERVARVRGGEGTGYFVDFSVRNCPRHHFPRHPNVFGFCRADLFYDVEALDLESPKNLVINCEVFDPQEHENINGVPPHLGHPFHWGGHERSSTTKPPFKPHGSRDHHHPHKPHEHGPPPPPDERDHSHGPPLPQGPPPLLPMSCSSCQHATFGTNGAQRHSHNNNSSDLHPHKHHSHEQHPHGHHPHAHHPHEHDTHRQHPHGHHPHGHHPHGHHPHGHHPHGHHPHCHDFQDYGPCDPPPHNQGHCCHGHGPPPGHLRRRGPGKGPRPFHCRQIGSVYRLPPLRKGEVLPLPEANFPSFPLPHHKHPLKPDNQPFPQSVSESCPGKFKSGFPQVSMFFTHTFPK |  | bound to divalent metal ions (iron, copper, cobalt, zinc, and nickel) | did not bind to trivalent iron ions |  | potent antioxidant action against hydroxy radicals | potent antioxidant activity against hydroxy radicals | had an antioxidant action against peroxy radicals | antioxidant action against hydroxy radicals (fluorescence intensity) ([1]; 0 μM to 1 μM sample solutions, FIG. 2B): antioxidant action against hydroxy radicals was recognized in a manner dependent on the concentration of HRG; antioxidant activity against hydroxy radicals ([1]; 1 μM, FIG. 3A): potent antioxidant actions; Antioxidant Activity Against Hydroxy Radicals (NetAUC) ([1]; various concentrations, FIG. 2C): potent antioxidant action against hydroxy radicals; number of divalent metal ions bound per molecule ([3]; FIG. 4A): a large number of divalent metal ions bind to one molecule of HRG; antioxidant action against peroxy radicals (fluorescence intensity) ([2]; 0 μM to 1 μM sample solutions, FIG. 7B): antioxidant action against peroxy radicals was recognized in a manner dependent on the concentration of HRG; antioxidant activity against peroxy radicals ([2]; 1 μM, FIG. 8A): potent antioxidant action; Antioxidant Activity Against Peroxy Radicals (NetAUC) ([2]; various concentrations, FIG. 7C): has an antioxidant action against peroxy radicals; antioxidant activity against peroxy radicals [2, 7]: showed an antioxidant activity against peroxy radicals; scavenging activity / antioxidant action against superoxide [5]: no scavenging activity against superoxide; also recorded: hardly showed an antioxidant action against superoxide; also recorded: no antioxidant action against superoxide; catalase-like activity [6]: no catalase-like activity
